Assay results published in publication PMC4972829, “Olfactory Receptors Modulate Physiological Processes in Human Airway Smooth Muscle Cells” (Frontiers in Physiology, 2016).

Legend:
OR2AG1 = target: T1, OR2AG1 (Homo sapiens, UniProt Q9H205); assay: fura-2 calcium imaging in native human airway smooth muscle cells; cAMP assay (text prints EC50 […], figure legend […]); type: cell-based
T1 sequence (Q9H205 1-316): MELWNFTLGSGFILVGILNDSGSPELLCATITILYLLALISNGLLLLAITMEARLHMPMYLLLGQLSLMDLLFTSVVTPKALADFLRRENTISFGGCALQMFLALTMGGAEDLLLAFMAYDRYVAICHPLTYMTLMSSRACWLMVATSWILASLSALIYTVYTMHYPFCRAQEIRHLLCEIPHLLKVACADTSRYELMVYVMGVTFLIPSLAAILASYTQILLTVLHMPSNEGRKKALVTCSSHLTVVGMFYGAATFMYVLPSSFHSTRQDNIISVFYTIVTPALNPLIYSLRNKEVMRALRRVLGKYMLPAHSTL

OR1D2 = target: T2, OR1D2 (Homo sapiens, UniProt P34982); assay: fura-2 calcium imaging in native human airway smooth muscle cells; blocked by OR1D2 antagonist undecanal; cAMP assay; type: cell-based
T2 sequence (P34982 1-312): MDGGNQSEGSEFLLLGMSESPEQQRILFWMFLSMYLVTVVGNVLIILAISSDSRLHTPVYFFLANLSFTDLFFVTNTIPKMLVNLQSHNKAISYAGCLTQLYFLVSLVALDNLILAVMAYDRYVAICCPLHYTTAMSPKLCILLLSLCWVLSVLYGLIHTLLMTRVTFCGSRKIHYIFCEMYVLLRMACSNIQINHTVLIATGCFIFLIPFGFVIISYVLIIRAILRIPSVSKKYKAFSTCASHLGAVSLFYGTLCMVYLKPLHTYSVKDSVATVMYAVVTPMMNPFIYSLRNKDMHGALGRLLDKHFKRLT

Row | SMILES | EC50 (OR2AG1) [µM] | EC50 (OR1D2) [nM]
1 | CCCCCOC(=O)CCC [amyl butyrate] | 253 | 
2 | CC(C)(C)c1ccc(CCC=O)cc1 [bourgeonal] |  | 504
